Experimental data published in paper PMC9014415, “Repositioning of a Diaminothiazole Series Confirmed to Target the Cyclin-Dependent Kinase CRK12 for Use in the Treatment of African Animal Trypanosomiasis” (Journal of Medicinal Chemistry, 2022).
Converted amounts (≈) assume the structure as drawn.

Legend:
[1] = Aqueous kinetic solubility by laser nephelometry; format: physicochemical; details: MilliQ water with 2.5% DMSO, read-out: Sol (kinetic solubility)
Protocol: 2. Drug metabolism and pharmacokinetics
The aqueous solubility of test compounds was measured using laser nephelometry. Compounds were subject to serial dilution from 10 mM to 0.5 mM in DMSO. Aliquot were then mixed with MilliQ water to obtain an aqueous dilution plate with a final concentration range of 250 – 12 µM. The final DMSO concentration in these plates was 2.5%. Triplicate aliquots were transferred to a flat-bottomed polystyrene plate which was immediately read on a NEPHELOstar nephelometer (BMG Lab Technologies). The laser scatter caused by insoluble particulates (relative nephelometry units, RNU) was plotted against compound concentration using a segmental regression fit, with the point of inflection being quoted as the compound’s aqueous solubility (µM).
Solubility of compound 1 was measured by a different method. Here, compound 1 was dissolved in DMSO to give a 10 mM solution and solubility test samples prepared by adding a volume (5 µL) of this stock solution to phosphate buffered saline, pH 7.4 (195 µL, Sigma-Aldrich). This

[2] = system: T. vivax; assay: Ex vivo drug sensitivity assay, T. vivax (STIB 719/ILRAD 560); format: cell-based; details: Trypanosoma vivax
Protocol: Test compounds were resuspended to a final concentration of 10 mg/mL in DMSO. […]
1.3 Ex vivo drug sensitivity assays - Trypanosoma vivax
Since T. vivax cannot be cultured axenically, BSF trypanosomes were harvested from an infected mouse with high parasitemia via cardiac puncture and used directly in ex vivo assays. EC50 values were determined against T, vivax (STIB 719/ ILRAD 560) as previously described3, with minor modifications. Briefly, cell densities were determined using a Neubauer chamber and then diluted to a seeding density of 4 x 105 trypanosomes / mL. BSF trypanosomes were cultured in HMI-9 (IMDM) media containing 20% (v/v) bovine serum. Assay plates were incubated at 37 °C with 5 % CO2, for a total of 45 h prior to addition 10 µL of Resazurin (12.5 mg in 100 mL phosphate buffered saline, Aldrich) into each well, followed by a further 3 h incubation. Absorbance was read using a SpectraMax (Gemini XS) fluorescence reader at an excitation wavelength of 536 nm and an emission wavelength of 588 nm. EC50 values were determined using SOFTmax Pro 5.2 analysis […]
software. […]

solubility kinetic ([1]; range 250-12 µM) [µM]	EC50 [2] [pM]	solubility kinetic at 24 h ([1]; pH 7.4, range 250-12 µM) [µM]	Structure (SMILES)
> 250	680		CNCc1cc(F)c(C(=O)c2sc(N[C@H]3CC[C@H](NS(=O)(=O)CC(C)C)CC3)nc2N)c(F)c1.Cl [Compound 8, N-((trans)-4-((4-Amino-5-(2,6-difluoro-4-((methylamino)methyl)benzoylthiazol-2-yl)amino)cyclohexyl))-2-methylpropane-1-sulfonamide Hydrochloride]
	470	53 (≈ 26.8 µg/mL)	CC(C)CS(=O)(=O)N[C@H]1CC[C@H](Nc2nc(N)c(C(=O)c3c(Cl)cccc3Cl)s2)CC1 [Compound 10, N-((trans)-4-((4-Amino-5-(2,6-dichlorobenzoyl)thiazol-2-yl)amino)cyclohexyl)-2-methylpropane-1-sulfonamide]
